From patent publication US12637433B2, “Histone deacetylase inhibitors” (THE UNIVERSITY OF QUEENSLAND, priority 2020, dated 2026)

Target: T1, human HDAC1 enzyme (Homo sapiens, UniProt Q13547)
T1 construct: purchased BPS Bioscience
Test: Human HDAC1 enzyme assay (Class I HDACs)
Format: biochemical
Details: Table 8; recombinant human HDAC1; read-out: IC50 (nM) (HDAC1)
Experimental: The inhibitory effect of compounds on HDAC1 activity was assessed in vitro using an optimised assay performed in black/flat black wall 384-well plate (Corning Inc.). All reagents and compounds were prepared in HDAC1 assay buffer (25 mM Tris-HCl, 137 mM NaCl, 2.7 mM KCl, 1 mM MgCl2·H2O and 0.1 mg/mL bovine serum albumin; pH 8). Various concentrations of inhibitor were pre-incubated with 50 ng/mL human HDAC1 enzyme (BPS Bioscience) for 30 min at room temperature on a plate shaker. Substrate (Leu(Ac)-Gly-Lys(Ac)-AMC, 12 μM) were then added and incubated for 90 min at 37° C. in the dark. The enzymatic reaction was then incubated with the developer solution (1 mg/mL trypsin and 25 μM SAHA) for 15-20 min at room temperature. Fluorescence intensity was measured using PHERAstar plate reader (BMG Labtech) at 350 nm excitation and 460 nm emission.
Data analysis: Triplicate measurements were made for each data point and error bars represent mean±SEM of three independent experiments. All data were plotted and analysed using GraphPad Prism Version 6.0d for Mac OS X (GraphPad Software). Dose Response Curves plotted using 4 parameters logistic model.

T1 sequence (Q13547 whole entry): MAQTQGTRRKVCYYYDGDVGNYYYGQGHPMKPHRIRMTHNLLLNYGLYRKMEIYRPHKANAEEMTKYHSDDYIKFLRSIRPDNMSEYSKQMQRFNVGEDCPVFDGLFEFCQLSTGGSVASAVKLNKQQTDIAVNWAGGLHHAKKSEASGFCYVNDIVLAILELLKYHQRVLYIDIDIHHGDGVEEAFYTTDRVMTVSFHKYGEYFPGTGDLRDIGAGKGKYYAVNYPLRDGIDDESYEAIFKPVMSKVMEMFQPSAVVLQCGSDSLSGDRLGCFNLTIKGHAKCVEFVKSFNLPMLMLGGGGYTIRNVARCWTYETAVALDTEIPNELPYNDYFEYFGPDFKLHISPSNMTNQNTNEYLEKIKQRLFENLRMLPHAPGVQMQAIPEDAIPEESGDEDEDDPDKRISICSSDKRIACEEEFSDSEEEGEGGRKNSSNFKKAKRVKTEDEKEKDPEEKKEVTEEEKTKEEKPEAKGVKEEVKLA

| IC50 [nM] | SMILES |
| --- | --- |
| 33000 | O=C(NO)c1ccc(CN2Cc3ccccc3C2=O)cc1-c1ccccc1 [Example 49] |
| > 10000 | Cc1cc(=O)n(Cc2ccc(C(=O)NO)c(-c3ccccc3)c2)c(C)n1 [Example 45] |
| 16000 | O=C(NCc1ccc(C(=O)NO)c(-c2ccccc2)c1)c1ccccc1F [Example 50] |
| 28000 | O=C(NO)c1ccc(CN2C(=O)c3cccnc3C2=O)cc1-c1ccccc1 [Example 53] |
| 5280 ± 3490 | CCc1nc2ccccc2c(=O)n1Cc1ccc(C(=O)NO)c(-c2ccccc2)c1 [Example 35] |
| > 20000 | O=C(NO)c1ccc(CN2C(=O)c3ccncc3C2=O)cc1-c1ccccc1 [Example 54] |
| > 10000 | O=C(NO)c1ccc(Cn2c(=O)cc[nH]c2=O)cc1-c1ccccc1 [Example 38] |
| 3190 ± 816 | O=C(NO)c1ccc(Cn2cnc3ccccc3c2=O)cc1-c1ccccc1 [Example 34] |

Target: T2, human HDAC7 enzyme (Homo sapiens, UniProt Q8WUI4)
T2 construct: purchased Reaction Biology Corp
T2 sequence (Q8WUI4 whole entry): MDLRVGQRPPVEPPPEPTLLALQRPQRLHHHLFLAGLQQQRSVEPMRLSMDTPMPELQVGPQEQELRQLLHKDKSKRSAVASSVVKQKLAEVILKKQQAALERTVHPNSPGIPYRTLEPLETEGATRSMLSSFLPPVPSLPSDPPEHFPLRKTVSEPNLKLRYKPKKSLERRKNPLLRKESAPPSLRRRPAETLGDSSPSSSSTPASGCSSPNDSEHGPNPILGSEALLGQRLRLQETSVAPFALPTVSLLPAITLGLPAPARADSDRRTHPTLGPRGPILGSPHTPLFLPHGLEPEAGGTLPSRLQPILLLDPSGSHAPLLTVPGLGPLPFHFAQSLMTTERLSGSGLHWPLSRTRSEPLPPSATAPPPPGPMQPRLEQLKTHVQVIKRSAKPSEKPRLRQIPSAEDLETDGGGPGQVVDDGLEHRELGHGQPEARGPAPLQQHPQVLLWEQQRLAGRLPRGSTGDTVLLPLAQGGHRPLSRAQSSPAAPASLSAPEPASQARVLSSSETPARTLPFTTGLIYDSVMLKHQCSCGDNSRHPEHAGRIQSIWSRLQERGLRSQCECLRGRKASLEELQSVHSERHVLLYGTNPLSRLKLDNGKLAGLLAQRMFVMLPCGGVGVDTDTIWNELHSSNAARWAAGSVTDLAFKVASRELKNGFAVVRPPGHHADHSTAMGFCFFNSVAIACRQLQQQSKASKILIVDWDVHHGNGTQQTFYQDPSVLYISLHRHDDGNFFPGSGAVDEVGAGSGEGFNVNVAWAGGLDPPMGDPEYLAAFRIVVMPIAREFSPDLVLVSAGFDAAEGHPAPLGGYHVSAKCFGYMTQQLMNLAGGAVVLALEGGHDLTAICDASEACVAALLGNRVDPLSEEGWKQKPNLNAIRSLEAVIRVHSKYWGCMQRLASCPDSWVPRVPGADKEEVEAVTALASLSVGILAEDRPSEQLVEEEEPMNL
Test: Human HDAC7 enzyme assay (Class IIa HDACs)
Format: biochemical
Details: Table 8; recombinant human HDAC7

| IC50 [nM] | SMILES |
| --- | --- |
| 81 ± 19 | Cc1ccc(Nc2ccc(C(=O)NO)c(-c3ccccc3)c2)cc1 [Example 76] |
| 178 ± 47 | O=C(NCc1ccc(C(=O)NO)c(-c2ccccc2Cl)c1)Nc1cccc2cccnc12 [Example 7] |
| 925 ± 865 | O=C(NCc1ccc(C(=O)NO)c(-c2ccccc2)c1)c1ccccc1NC(=O)C(F)(F)F [Example 22] |
| 74 ± 13 | CC1C(=O)Nc2ccccc2C(=O)N1Cc1ccc(C(=O)NO)c(-c2ccccc2)c1 (stereo not shown) [Example 97] |
| 175 ± 26 | O=C(NO)c1ccc(Oc2ccc(F)cc2)cc1-c1ccccc1 [Example 80] |
| 1590 | O=C(NO)c1ccc(NC(=O)C2(c3ccc4ccccc4c3)CCOCC2)cc1-c1ccccc1 [Example 93] |
| 1890 ± 431 | Cc1ccc(-c2cc(CNC(=O)Nc3cccc4cccnc34)ccc2C(=O)NO)cc1 [Example 11] |
| 137 ± 30 | COC(=O)c1ccc(CNCc2ccc(C(=O)NO)c(-c3ccccc3)c2)cc1-c1ccccc1 [Example 32, N-(4-hydroxyaminocarbonyl-3-phenylbenzyl)-N-(4-methoxycarbonyl-3-phenylbenzyl)amine] |
| 78 ± 21 | CC(=O)Nc1cccc(C(=O)NCc2ccc(C(=O)NO)c(-c3ccccc3)c2)c1 [Example 19] |
| 196 ± 66 | CCCCCCNC(=O)NCc1ccc(C(=O)NO)c(-c2ccccc2)c1 [Example 29] |
| 914 ± 204 | O=C(NO)c1ccc(CNCc2ccc[nH]2)cc1-c1ccccc1 [Example 95] |
| 323 | COc1ccc(C(=O)Nc2ccc(C(=O)NO)c(-c3ccccc3)c2)cc1 [Example 63] |
| 658 ± 208 | O=C(O)c1ccc(CNCc2ccc(C(=O)NO)c(-c3ccccc3)c2)cc1-c1ccccc1 [Example 33, N-(4-hydroxyaminocarbonyl-3-phenylbenzyl)-N-(4-hydroxycarbonyl-3-phenylbenzyl)amine] |
| 116 ± 27 | NC(=O)c1ccc(C(=O)NCc2ccc(C(=O)NO)c(-c3ccccc3)c2)cc1 [Example 21] |
| 325 | O=C(Nc1ccc(C(=O)NO)c(-c2ccccc2)c1)c1ccccc1 [Example 60] |
| 238 ± 86 | O=C(Cc1c[nH]c2ccccc12)NCc1ccc(C(=O)NO)c(-c2ccccc2)c1 [Example 25] |
| > 10000 | O=C(NO)c1ccc(Nc2ccc(-c3ccccc3)cc2)cc1-c1ccccc1 [Example 72] |
| 68 ± 15 | O=C(O)c1ccc(Nc2ccc(C(=O)NO)c(-c3ccccc3)c2)cc1 [Example 74] |
| 945 | Nc1ccc(C(=O)NO)c(-c2ccccc2)c1 [Example 99] |
| 649 | O=C(NO)c1ccc(Nc2cc(F)c(F)c(F)c2)cc1-c1ccccc1 [Example 70] |
| 241 | O=C(NO)c1ccc(NC(=O)C2(C(=O)Nc3ccccc3)CC2)cc1-c1ccccc1 [Example 87] |
| 54 ± 7 | CC(C)(C)OC(=O)c1ccc(Nc2ccc(C(=O)NO)c(-c3ccccc3)c2)cc1 [Example 75] |
| 3130 ± 1730 | C[C@H](N)C(=O)NCc1ccc(C(=O)NO)c(-c2ccccc2)c1 [Example 92] |

| IC50 [nM] | SMILES |
| --- | --- |
| 151 ± 52 | O=C(NCc1ccc(C(=O)NO)c(-c2ccccc2)c1)c1cccnc1 [Example 17] |
| 118 ± 21 | O=C(NCc1ccc(C(=O)NO)c(-c2ccc(F)cc2)c1)Nc1cccc2cccnc12 [Example 6] |
| > 10000 | COc1cccc(-c2cc(CNC(=O)Nc3cccc4cccnc34)ccc2C(=O)NO)c1 [Example 103] |
| 125 ± 22 | O=C(NO)c1ccc(CNCc2ccc(C(=O)NO)c(-c3ccccc3)c2)cc1-c1ccccc1 [Example 31, bis(4-hydroxyaminocarbonyl-3-phenylbenzyl)amine] |
| 886 ± 192 | O=C(NCc1ccc(C(=O)NO)c(-c2cccc(Cl)c2)c1)Nc1cccc2cccnc12 [Example 8] |
| 75 ± 23 | O=C(NO)c1ccc(NC(=O)C2(C(=O)Nc3ccccc3)CCC2)cc1-c1ccccc1 [Example 88] |
| 64 ± 12 | O=C(NCc1ccc(C(=O)NO)c(-c2cccc(F)c2)c1)Nc1cccc2cccnc12 [Example 5] |
| 178 | O=C(NO)c1ccc(Nc2ccc(Cl)cc2)cc1-c1ccccc1 [Example 68] |
| > 10000 | COc1ccc(-c2cc(CNC(=O)Nc3cccc4cccnc34)ccc2C(=O)NO)cc1 [Example 102] |
| ≥ 10000 | Cc1nc2ccccc2c(=O)n1Cc1ccc(C(=O)N(C)O)c(-c2ccccc2)c1 [Example 100] |
| 249 | O=C(NO)c1ccc(Nc2ccccn2)cc1-c1ccccc1 [Example 82] |
| 104 ± 21 | O=C(NCc1ccc(C(=O)NO)c(-c2ccccc2)c1)Nc1ccccc1 [Example 28] |
| 1470 ± 426 | O=C(NO)c1ccc(CNCc2ccccc2)cc1-c1ccccc1 [Example 30, 5-((benzylamino)methyl)-N-hydroxy-[1,1′-biphenyl]-2-carboxamide] |
| 578 | O=C(NO)c1ccc(Nc2ccc(C(F)(F)F)cc2)cc1-c1ccccc1 [Example 69] |
| 108 ± 34 | O=C(NCc1ccc(C(=O)NO)c(-c2ccccc2)c1)c1ccccn1 [Example 16] |
| 645 | O=C(Nc1ccc(C(=O)NO)c(-c2ccccc2)c1)c1ccc(F)cc1 [Example 61] |
| 168 | O=C(NO)c1ccc(NC(=O)C2(C(=O)Nc3ccccc3)CCCCC2)cc1-c1ccccc1 [Example 90] |
| > 10000 | Nc1ccc(-c2cc(CNC(=O)Nc3cccc4cccnc34)ccc2C(=O)NO)cc1 [Example 105] |
| 94 | O=C(NO)c1ccc(Nc2ccccc2)cc1-c1ccccc1 [Example 66] |
| 125 ± 26 | Cc1ccccc1-c1cc(CNC(=O)Nc2cccc3cccnc23)ccc1C(=O)NO [Example 9] |
| 243 | O=C(NO)c1ccc(NC(=O)C2(C(=O)Nc3ccccc3)CCCC2)cc1-c1ccccc1 [Example 89] |
| 165 ± 45 | O=C(NCc1ccc(C(=O)NO)c(-c2ccccc2)c1)c1cnc[nH]1 [Example 94] |
| 8660 | Cc1nc2ccccc2c(=O)n1Cc1ccc(C(=O)NO)c(C2CC2)c1 [Example 106] |

| IC50 [nM] | SMILES |
| --- | --- |
| 233 ± 95 | O=C(NO)c1ccc(Nc2cnccn2)cc1-c1ccccc1 [Example 84] |
| 205 ± 47 | O=C(NCc1ccc(C(=O)NO)c(-c2ccccc2)c1)c1ccncc1 [Example 18] |
| 88 | O=C(NO)c1ccc(Nc2ccc(F)cc2)cc1-c1ccccc1 [Example 67] |
| 447 ± 177 | O=C(NO)c1ccc(Nc2ncccn2)cc1-c1ccccc1 [Example 83] |
| 625 ± 318 | O=C(NO)c1ccc(NC(=O)C2(c3c[nH]c(-c4ccc([N+](=O)[O-])cc4)n3)CCCC2)cc1-c1ccccc1 [Example 85] |
| 101 ± 26 | CC(=O)Nc1ccc(C(=O)NCc2ccc(C(=O)NO)c(-c3ccccc3)c2)cc1 [Example 20] |
| 61 ± 9 | COc1ccc(Nc2ccc(C(=O)NO)c(-c3ccccc3)c2)cc1 [Example 77] |
| 960 ± 225 | O=C(NO)c1ccc(CNC(=O)C2CCCN2)cc1-c1ccccc1 (stereo not shown) [Example 27] |
| 206 | O=C(NO)c1ccc(Nc2cc(F)cc(F)c2)cc1-c1ccccc1 [Example 71] |
| 321 | O=C(NO)c1ccc(Nc2ccc3ccccc3c2)cc1-c1ccccc1 [Example 73] |
| 582 ± 104 | O=C(NO)c1c(F)cc(CN2C(=O)c3ccccc3S2(=O)=O)cc1-c1ccccc1 [Example 57b] |
| 322 ± 109 | CC1C(=O)NC(Cc2ccccc2)C(=O)N1Cc1ccc(C(=O)NO)c(-c2ccccc2)c1 (mixture of isomers) [Example 96] |
| > 10000 | O=C(NCc1ccc(C(=O)NO)c(-c2cn[nH]c2)c1)Nc1cccc2cccnc12 [Example 104] |
| 431 | Cc1ccc(C(=O)Nc2ccc(C(=O)NO)c(-c3ccccc3)c2)cc1 [Example 62] |
| 5 ± 1 | O=C(NO)c1ccc(C(n2cc(-c3ccccc3)nn2)n2cc(-c3ccccc3)nn2)cc1-c1ccccc1 [Example 58] |
| 152 ± 40 | O=C(NCc1ccc(C(=O)NO)c(-c2ccccc2F)c1)Nc1cccc2cccnc12 [Example 4] |
| ≥ 10000 | CONC(=O)c1ccc(Cn2c(C)nc3ccccc3c2=O)cc1-c1ccccc1 [Example 101] |
| 248 | O=C(Nc1ccccc1)Nc1ccc(C(=O)NO)c(-c2ccccc2)c1 [Example 86] |
| 123 ± 39 | O=C(NCc1ccc(C(=O)NO)c(-c2ccccc2)c1)c1ccccc1 [Example 15] |
| 100 ± 18 | CC1C(=O)N(C2CCCCC2)C(=O)N1Cc1ccc(C(=O)NO)c(-c2ccccc2)c1 (stereo not shown) [Example 98] |
| > 10000 | Cc1cccc(-c2cc(CNC(=O)Nc3cccc4cccnc34)ccc2C(=O)NO)c1 [Example 10] |
| 64 ± 10 | CN(c1ccc(F)cc1)c1ccc(C(=O)NO)c(-c2ccccc2)c1 [Example 81] |
